ChEMBL document CHEMBL1125482, “Pharmacokinetics of catechol cephalosporins. The effect of incorporating substituents into the catechol moiety on pharmacokinetics in a marmoset model” (J Med Chem, 1992)
≈ marks a conversion by molar mass, not a printed value.

Experiments:
[1] = species on record: Canis familiaris; conditions: dog, in vivo, iv
[2] = tested on: Staphylococcus aureus; test: microbe, parasite or virus in culture
Description: Compound was tested for antimicrobial activity against Staphylococcus aureus Oxford strain

[3] = tested on: Staphylococcus aureus; test: microbe, parasite or virus in culture; remark: listed apart in the source
Description: Compound was tested for antimicrobial activity against Staphylococcus aureus penicillin sensitive Staphylococcus aureus (147N) strain

[4] = tested on: Pseudomonas aeruginosa; test: microbe, parasite or virus in culture
Description: Compound was tested for antimicrobial activity against Pseudomonas aeruginosa PU21 strain

[5] = tested on: Enterobacter cloacae; test: microbe, parasite or virus in culture
Description: Compound was tested for antimicrobial activity against Enterobacter cloacae constitutive derepressed type I beta-lactamase producer (P99+) strain

[6] = in vivo; conditions: callithrix, serum, iv
Description: Serum T1/2 in marmosets (IV dose)

[7] = tested on: Enterobacter cloacae; test: microbe, parasite or virus in culture; remark: listed apart in the source
Description: Compound was tested for antimicrobial activity against Enterobacter cloacae inducible type I beta-lactamase producer (P99-) strain

[8] = Urinary recovery in marmosets (IV dose); type: ADME, organism-based; conditions: callithrix, urine, read-out: Recovery
[9] = physchem
Description: Dissociation constant (pKa)

[10] = species on record: Homo sapiens; test: Compound was tested for serum protein binding in human blood; type: functional
[11] = tested on: Escherichia coli; test: microbe, parasite or virus in culture
Description: Compound was tested for antimicrobial activity against Escherichia coli DC0 strain (parent organism)

[12] = tested on: Escherichia coli; test: microbe, parasite or virus in culture; remark: listed apart in the source
Description: Compound was tested for antimicrobial activity against Escherichia coli DC2 strain (permeability mutant)

[13] = tested on: Pseudomonas aeruginosa; test: Compound was tested for antimicrobial activity against Pseudomonas aeruginosa constitutive derepressed type I beta-lactamase producer (18SH) strain; type: functional
[14] = tested on: Mus musculus; test: Compound was evaluated in vivo for antibacterial activity against Pseudomonas aeruginosa (strain 101010) in mice; type: functional; conditions: read-out: PD50
[15] = tested on: Pseudomonas aeruginosa; test: microbe, parasite or virus in culture; remark: listed apart in the source
[16] = tested on: Mus musculus; test: Compound was evaluated in vivo for antibacterial activity against Pseudomonas aeruginosa (strain 101010) in mice; range 1.0-6.0 mg/Kg; type: functional
[17] = species on record: Homo sapiens; test: Compound is evaluated for serum protein binding in human blood […]; type: functional

Question: Which results are given for `CC(C)(O/N=C(\C(=O)N[C@@H]1C(=O)N2C(C(=O)O)=C(CNC(=O)c3ccc(O)c(O)c3)CS[C@H]12)c1csc(N)n1)C(=O)O`?
Answer: AUC [1]: 27.2 mg/h/L; MIC [2]: 8 µg/mL (≈ 12.9 µM); MIC [3]: 16 µg/mL (≈ 25.8 µM); MIC [4]: 0.015 µg/mL (≈ 0.0242 µM); MIC [5]: 16 µg/mL (≈ 25.8 µM); half-life [6]: 75 min; MIC [7]: 0.0125 µg/mL (≈ 0.0201 µM); dose excreted [8]: 44.8%; pKa [9]: 8.5; Activity [10]: 96.3%; MIC [11]: < 0.008 µg/mL; MIC [12]: 8 ng/mL (≈ 0.0129 µM); MIC [13]: 0.06 µg/mL (≈ 0.0967 µM)

Question: For `CCn1cc(C(=O)NCC2=C(C(=O)O)N3C(=O)[C@@H](NC(=O)/C(=N\OC(C)(C)C(=O)O)c4csc(N)n4)[C@H]3SC2)c(=O)c2cc(O)c(O)cc21`, which AUC [1] is on record?
Answer: 238.5 mg/h/L

Question: And the MIC [2]?
Answer: 16 µg/mL (≈ 22.4 µM)

Question: And the MIC [3]?
Answer: 16 µg/mL (≈ 22.4 µM)

Question: And the MIC [4]?
Answer: 0.06 µg/mL (≈ 0.0838 µM)

Question: What about the MIC [5] of the same molecule?
Answer: 0.25 µg/mL (≈ 0.349 µM)

Question: And the half-life [6]?
Answer: 210 min

Question: And the MIC [7]?
Answer: 0.06 µg/mL (≈ 0.0838 µM)

Question: And the ED50 [14]?
Answer: 0.01 mg/kg

Question: And the dose excreted [8]?
Answer: 17.5%

Question: What about the pKa [9] of the same molecule?
Answer: 7.2

Question: And the Activity [10]?
Answer: 99%

Question: What about the MIC [11] of the same molecule?
Answer: < 0.008 µg/mL

Question: What about the MIC [12] of the same molecule?
Answer: 8 ng/mL (≈ 0.0112 µM)

Question: And the MIC [15]?
Answer: < 0.008 µg/mL

Question: Which AUC [1] does the source give for `CC(C)(O/N=C(\C(=O)N[C@@H]1C(=O)N2C(C(=O)[O-])=C(C[n+]3ccccc3)CS[C@H]12)c1csc(N)n1)C(=O)O` [CEFTAZIDIME] here?
Answer: 14 mg/h/L

Question: And the MIC [2]?
Answer: 4 µg/mL (≈ 7.32 µM)

Question: And the MIC [3]?
Answer: 8 µg/mL (≈ 14.6 µM)

Question: And the MIC [4]?
Answer: 1 µg/mL (≈ 1.83 µM)

Question: What about the MIC [5] of the same molecule?
Answer: 32 µg/mL (≈ 58.5 µM)

Question: And the half-life [6]?
Answer: 42 min

Question: What about the PD50 [16] of the same molecule?
Answer: 1 µg/mL

Question: What about the MIC [7] of the same molecule?
Answer: 0.125 µg/mL (≈ 0.229 µM)

Question: What about the MIC [11] of the same molecule?
Answer: 0.125 µg/mL (≈ 0.229 µM)

Question: And the MIC [12]?
Answer: 60 ng/mL (≈ 0.11 µM)

Question: And the MIC [15]?
Answer: 16 µg/mL (≈ 29.3 µM)

Question: Which dose excreted [8] does the source give for `CO/N=C(\C(=O)N[C@@H]1C(=O)N2C(C(=O)O)=C(CSc3nc(=O)c(O)nn3C)CS[C@H]12)c1csc(N)n1` [CEFTRIAXONE] here?
Answer: 25.4%

Question: And the Activity [17]?
Answer: 94.5%
